Laboratory results from patent publication US20250115628A1, “FLUORINATED FLUOROPHORES” (HOWARD HUGHES MEDICAL INSTITUTE, priority 2023, published 2025).
Like-named read-outs stand apart in the source and are kept apart here.

Assays:
[1] = rhodamine derivatives; 1:1 dioxane:H2O; data from the inventors' published work; cited from earlier work
[2] = rhodamine derivatives; 10 mM HEPES, pH 7.3; data from the inventors' published work; cited from earlier work
[3] = rhodamine derivatives; 10 mM HEPES, pH 7.3; data from the inventors' published work; cited from earlier work; remark: listed apart in the source
[4] = General UV-vis and fluorescence spectroscopy; assay type: physicochemical
Method: Spectroscopy was performed using 1^−cm path length, 3.5^−mL quartz cuvettes or 1^−cm path length, 1.4^−mL semi-micro quartz cuvettes from Starna Cells. All measurements were taken at ambient temperature (22±2° C.). Absorption spectra were recorded on a Cary Model 100 spectrometer (Agilent), and fluorescence spectra were recorded on a Cary Eclipse fluorometer (Varian). The spectra, maximum absorption wavelength (labs), extinction coefficient at λabs (8), and maximum emission wavelength (em) were measured in 10 mM HEPES, pH 7.3 buffer (rhodamines and Malachite Green derivative 49) or 0.1 M NaOH (fluoresceins); the reported values for e are averages (n=3). Normalized spectra are shown for clarity.

[5] = pKa determination (absorbance vs. pH); conditions: for ηH: Hill coefficient from pH titration data; for pKa: aqueous buffer solutions
Method: For pH 2.0-4.0, the McIlvaine citrate/phosphate buffer system was used. For other pH ranges dye absorbance was measured in buffers containing 150 mM NaCl and 10 mM buffer using the following systems: citrate (pH 4.0-6.0), phosphate (pH 5.8-8.0); tris (pH 7.8-9.0); carbonate (pH 9.2-10.0). Buffer solutions containing 5 M of each fluorophore were prepared (36 samples in duplicate from pH 4.0-10.0 for 51, 53, and 60; 48 samples in duplicate from pH 2.0-10.0 for 76 and 77). Absorbance values were recorded on a Cary Model 100 spectrometer and plotted using GraphPad Prism software. The points were fitted to a sigmoidal dose response curve with a variable slope to determine the Hill coefficient (ηH).

[6] = Quantum yield determination; assay type: physicochemical
Method: All reported absolute fluorescence quantum yield values (Φf) were measured using a Quantaurus-QY spectrometer (model C11374, Hamamatsu). This instrument uses an integrating sphere to determine photons absorbed and emitted by a sample. Measurements were carried out using dilute samples (A<0.1), and self-absorption corrections were performed using the instrument software.^81

[7] = Determination of KL-Z (lactone-zwitterion equilibrium constant); assay type: physicochemical; parameters: key: KL-Z = (εdw/εmax)/(1−εdw/εmax); εdw measured in 1:1 dioxane/water; conditions: 1:1 dioxane:H2O
Method: KL-Z was calculated using the following equation:^16, 18 KL-Z=(εdw/εmax)/(1−εdw/εmax). εdw is the extinction coefficient of the dyes in a 1:1 (v/v) dioxane/water solvent mixture; this dioxane/water mixture was chosen to give the maximum spread of KL-Z values across all classes of rhodamines.^18 εmax refers to the maximal extinction coefficients measured in different solvent mixtures empirically determined depending on dye type: 0.1% v/v trifluoroacetic acid in ethanol for 18, 20, 29, 34, 36, 70-72, 81-83, 93-95, 99-102, and 104; 0.1% v/v trifluoroacetic acid in 2,2,2^−trifluoroethanol for all other rhodamine variants. A accurate determination of low KL-Z values is complicated by the relatively poor sensitivity of absorbance measurements.

[8] = fluorescein derivatives, 0.1 N NaOH
[9] = rhodamine derivatives, 10 mM HEPES, pH 7.3
[10] = quinolinyl rhodamines, 10 mM HEPES, pH 7.3

Row | Compound | KL-Z [1] | Φf [2] | λabs [3] | λem [3] | ε [3] | ε [4, 8] | λabs [4, 8] | λem [4, 8] | ηH [5] | Φf [6, 8] | also measured
1 | [2H]C1([2H])N(c2ccc3c(-c4ccccc4C(=O)[O-])c4ccc(=[N+]5C([2H])([2H])C([2H])([2H])C([2H])([2H])C5([2H])[2H])cc-4oc3c2)C([2H])([2H])C([2H])([2H])C1([2H])[2H] [compound 87] | 4.96 | 0.80 | 554 nm | 576 nm | – | – | – | – | – | – | –
2 | [2H]C1([2H])N(c2ccc3c(c2)C(C)(C)C2=CC(=[N+]4C([2H])([2H])C([2H])([2H])C([2H])([2H])C4([2H])[2H])C=CC2=C3c2ccccc2C(=O)[O-])C([2H])([2H])C([2H])([2H])C1([2H])[2H] [compound 88] | 0.880 | 0.70 | 612 nm | 633 nm | 130,000 M^−1cm^−1 | – | – | – | – | – | –
3 | O=C1OC2(c3ccc(O)cc3Oc3cc(O)ccc32)c2c(F)c(F)c(F)c(F)c21 [compound 60, 4,5,6,7^−tetrafluorofluorescein, reference compound] | – | – | – | – | – | 85,600 M^−1cm^−1 | 508 nm | 527 nm | 0.92 | 0.85 | –
4 | O=C1OC2(c3cc(F)c(O)cc3Oc3cc(O)c(F)cc32)c2c(F)c(F)c(F)c(F)c21 [compound 77, reference compound] | – | – | – | – | – | 81,200 M^−1cm^−1 | 508 nm | 527 nm | 1.00 | 0.18 | –
5 | O=C1OC2(c3cc(F)c(O)cc3Oc3cc(O)c(F)cc32)c2ccccc21 [compound 76, reference compound] | – | – | – | – | – | 82,400 M^−1cm^−1 | 490 nm | 514 nm | 0.98 | 0.97 | –
6 | CN(c1ccccc1)c1ccc2c(-c3ccccc3C(=O)[O-])c3ccc(=[N+](C)c4ccccc4)cc-3oc2c1 [compound 90] | 0.296 | – | 549 nm | – | 16,000 M^−1cm^−1 | – | – | – | – | – | –
7 | JF669 [compound 2] | 0.262 | 0.37 | 669 nm | 662 nm | 112,000 M^−1cm^−1 | – | – | – | – | – | –
8 | C[Si]1(C)C2=CC(=O)C=CC2=C(c2c(F)c(F)c(F)c(F)c2C(=O)O)c2ccc(O)cc21 [compound 55, 4,5,6,7^−Tetrafluoro-Si-fluorescein] | – | – | – | – | – | 84,100 M^−1cm^−1 | 598 nm | 614 nm | 1.23 | 0.50 | pKa [5]: 7.08
9 | CC1(C)C2=CC(=O)C=CC2=C(c2c(F)c(F)c(F)c(F)c2C(=O)O)c2ccc(O)cc21 [compound 51, 4,5,6,7^−Tetrafluoro-carbofluorescein] | – | – | – | – | – | 96,700 M^−1cm^−1 | 564 nm | 585 nm | 1.02 | 0.54 | pKa [5]: 6.86
10 | C[Si]1(C)c2cc(N3CCC3)ccc2C2(OC(=O)c3ccccc32)c2ccc(N3CCC3)cc21 [compound 1, JF646] | – | 0.54 | 646 nm | 664 nm | 5,600 M^−1cm^−1 | – | – | – | – | – | –
11 | CC1(C)c2cc(N3CCC3)ccc2C2(OC(=O)c3ccccc32)c2ccc(N3CCC3)cc21 [compound 86, JF608] | 0.0911 | 0.67 | 608 nm | 631 nm | 99,000 M^−1cm^−1 | – | – | – | – | – | –
12 | CC1(C)C2=CC(=N)C=CC2=C(c2ccccc2C(=O)O)c2ccc(N)cc21 [compound 82] | 0.0127 | 0.64 | 552 nm | 577 nm | 65,000 M^−1cm^−1 | – | – | – | – | – | –
13 | C[Si]1(C)C2=CC(=N)C=CC2=C(c2ccccc2C(=O)O)c2ccc(N)cc21 [compound 83] | – | 0.53 | 587 nm | 609 nm | 2,200 M^−1cm^−1 | – | – | – | – | – | –
14 | [2H]C1([2H])N(c2ccc3c(-c4c(F)c(F)c(F)c(F)c4C(=O)[O-])c4ccc(=[N+]5C([2H])([2H])C([2H])([2H])C([2H])([2H])C5([2H])[2H])cc-4oc3c2)C([2H])([2H])C([2H])([2H])C1([2H])[2H] [compound 8, JFX576] | – | – | – | – | – | – | – | – | – | – | ε [4, 9]: 124,000 M^−1cm^−1; λabs [4, 9]: 576 nm; λem [4, 9]: 597 nm; Φf [6, 9]: 0.71; KL-Z ([7]; rhodamine derivatives): 7.50
15 | CC1CC(C)(C)Nc2cc3c(cc21)C(c1c(F)c(F)c(F)c(F)c1C(=O)O)=c1cc2c(cc1[Si]3(C)C)=NC(C)(C)CC2C (centres unmarked) [compound 34, 2,3,4,5^−Tetrafluoro-6^−(2,2,4,8,10,10,13,13^−octamethyl-2,3,4,8,9,10,11,13^−octahydrosilino[3,2^−g:5,6^−g]diquin-olin-6^−ylium-6(1H)-yl)benzoate] | – | – | – | – | – | – | – | – | – | – | ε [4, 10]: 129,000 M^−1cm^−1; λabs [4, 10]: 660 nm; λem [4, 10]: 676 nm; Φf [6, 10]: 0.28; KL-Z ([7]; quinolinyl rhodamines): 1.90
16 | CCc1cc2c(c3c1=[N+](C)CCC3)C(C)(C)c1cc3c(cc1C=2c1c(F)c(F)c(F)c(F)c1C(=O)[O-])C(C)CC(C)(C)N3CC (centres unmarked) [compound 59, JF657] | – | – | – | – | – | – | – | – | – | – | ε [4, 9]: 137,000 M^−1cm^−1; λabs [4, 9]: 657 nm; λem [4, 9]: 672 nm; Φf [6, 9]: 0.50; KL-Z ([7]; rhodamine derivatives): 4.97
17 | N=c1ccc2c(-c3ccccc3C(=O)O)c3ccc(N)cc3oc-2c1 [compound 81] | 2.53 | 0.88 | 487 nm | 520 nm | 75,000 M^−1cm^−1 | – | – | – | – | – | –
18 | CC1(C)C2=CC(=O)C(F)=CC2=C(c2c(F)c(F)c(F)c(F)c2C(=O)O)c2cc(F)c(O)cc21 [compound 53, 2′,4,5,6,7,7′-Hexafluorocarbofluorescein] | – | – | – | – | – | 91,100 M^−1cm^−1 | 576 nm | 599 nm | 1.00 | 0.29 | pKa [5]: 5.47
19 | [2H]C1([2H])N(c2ccc3c(c2)[Si](C)(C)C2=CC(=[N+]4C([2H])([2H])C([2H])([2H])C([2H])([2H])C4([2H])[2H])C=CC2=C3c2ccccc2C(=O)[O-])C([2H])([2H])C([2H])([2H])C1([2H])[2H] [compound 89, JFX650] | – | 0.53 | 650 nm | 667 nm | 17,600 M^−1cm^−1 | – | – | – | – | – | –
20 | CC1=CC(C)(C)N(C)c2cc3c(cc21)C(c1ccccc1C(=O)[O-])=c1cc2c(cc1O3)=[N+](C)C(C)(C)C=C2C [compound 103, 2^−(1,2,2,4,8,10,10,11-Octamethyl-1,2,10,11-tetrahydropyrano[3,2^−g:5,6^−g]diquinolin-13^−ium-6^−yl)benzoate] | – | – | – | – | – | – | – | – | – | – | ε [4, 10]: 95,200 M^−1cm^−1; λabs [4, 10]: 585 nm; λem [4, 10]: 610 nm; Φf [6, 10]: 0.73; KL-Z ([7]; quinolinyl rhodamines): 4.44
21 | O=C1OC2(c3ccc(O)cc3Oc3cc(O)ccc32)c2ccccc21 [compound 73, reference compound] | – | – | – | – | – | 90,000 M^−1cm^−1 | 490 nm | 514 nm | 0.97 | 0.92 | –
22 | CC1CC(C)(C)Nc2cc3[o+]c4cc5c(cc4c(-c4ccccc4C(=O)[O-])c3cc21)C(C)CC(C)(C)N5 (centres unmarked) [compound 99, 2^−(2,2,4,8,10,10^−Hexamethyl-1,2,3,4,8,9,10,11-octahydropyrano[3,2^−g:5,6^−g′]diquinolin-13^−ium-6^−yl)benzoate] | – | – | – | – | – | – | – | – | – | – | ε [4, 10]: 112,000 M^−1cm^−1; λabs [4, 10]: 542 nm; λem [4, 10]: 564 nm; Φf [6, 10]: 0.83; KL-Z ([7]; quinolinyl rhodamines): 6.30
